Experimental data reported in patent US20120214862A1, “MODULATION OF FACTOR 7 EXPRESSION” (ISIS Pharmaceuticals, Inc., priority 2009, published 2012).
e = 2'-O-(2-methoxyethyl) (MOE); d = 2'-deoxy (DNA)

Tests used:
[1] = system: murine Factor 7 mRNA; test: Liver Factor 7 mRNA by real-time RT-PCR in treated BALB/c mice; assay type: in vivo, mouse; conditions: for % inhibition of murine Factor 7 mRNA: BALB/c liver; for % inhibition of murine Factor 7 mRNA / % inhibition of Factor 7 mRNA: relative to PBS control; for % inhibition of Factor 7 mRNA: liver; for % inhibition of Factor 7 mRNA (liver): mice
Method: A control group of mice was injected subcutaneously with PBS twice a week for 3 weeks. After the treatment period, whole liver was collected for RNA and protein analysis, and plasma was collected for clotting analysis (PT/aPTT).
(§1) RNA was extracted from liver tissue for real-time RT-PCR analysis of Factor 7.
A control group of 3 mice was injected with a single dose of PBS, and mice in this group were sacrificed on day 1. Mice in all groups were sacrificed by cervical dislocation following anesthesia with 150 mg/kg ketamine mixed with 10 mg/kg xylazine administered by intraperitoneal injection. Liver was harvested for RNA analysis and plasma was collected for clotting analysis (PT and aPTT).
as §1
Mice from the first group were sacrificed on days 1 and 3 after the single dose. […] A control group of 3 mice was injected with PBS in a single dose. Mice from the control group were sacrificed 1 day later. Mice in all groups were sacrificed by cervical dislocation following anesthesia with 150 mg/kg ketamine mixed with 10 mg/kg xylazine administered by intraperitoneal injection. Liver was harvested for RNA analysis and plasma was collected for clotting analysis (PT and aPTT) for mice in all groups.
RNA was extracted from liver tissue for quantitative RT-PCR analysis of Factor 7.
(§2) Two control groups of BALB/c mice were treated with PBS, administered subcutaneously twice a week for 3 weeks. Thrombus formation was induced with FeCl3 in half of the mice while the rest of the mice were assayed for tail bleeding. […] Thrombus formation was induced with FeCl3 in all groups of the VT mice except the first control group.
as §1
A fifth group of BALB/c mice was treated with 3 mg/kg of warfarin, administered intraperioneally daily for 6 days. Four hours after the last dose of warfarin, mice were sacrificed. A control group of BALB/c mice were treated with PBS, administered subcutaneously twice a week for 3 weeks. Two days after the last dose of PBS, mice were anesthetized with 150 mg/kg ketamine mixed with 10 mg/kg xylazine administered by intraperitoneal injection. Thrombus formation was induced with FeCl3 in groups of mice except the first control group.

[2] = system: platelet factor-4 (PF-4); test: FeCl3 induced venous thrombosis (VT) model, real-time RT-PCR quantification of PF-4 in vena cava as measure of thrombus formation; assay type: in vivo, mouse; conditions: for PF-4 (percent of PF-4 mRNA as compared to the PBS + FeCl3 control) / PF-4 (percentage compared to PBS controls): BALB/c mice; for PF-4 (percent of PF-4 mRNA as compared to the PBS + FeCl3 control): no Plavix; for PF-4 (percentage compared to PBS controls): vena cava
Method: as §2
In mice undergoing FeCl3 treatment, thrombus formation was induced by applying a piece of filter paper ([…]) pre-saturated with 10% FeCl3 solution directly on the vena cava. After 3 minutes of exposure, the filter paper was removed. Thirty minutes after the filter paper application, a fixed length of the vein containing the thrombus was dissected out for platelet analysis. Liver was collected for RNA analysis.
(§3) Real-time RT-PCR quantification of platelet factor-4 (PF-4) was used to quantify platelets in the vena cava as a measure of thrombus formation.
Six additional groups of BALB/c mice was treated with 0.5 mg/kg, 1 mg/kg, 2 mg·kg, 3 mg/kg, 4 mg/kg, or 5 mg/kg of warfarin, administered intraperioneally daily for 6 days. Four hours after the last dose of warfarin, mice were sacrificed. A control group of BALB/c mice were treated with PBS, administered subcutaneously twice a week for 3 weeks. Two days after the last dose of PBS, mice were anesthetized with 150 mg/kg ketamine mixed with 10 mg/kg xylazine administered by intraperitoneal injection. Thrombus formation was induced with FeCl3 in groups of mice except the first control group.
In mice undergoing FeCl3 treatment, thrombus formation was induced by applying a piece of filter paper (2×4 mm) pre-saturated with 10% FeCl3 solution directly on the vena cava. After 3 minutes of exposure, the filter paper was removed. Thirty minutes after the filter paper application, a fixed length of the vein containing the thrombus was dissected out for platelet analysis. Liver was collected for RNA analysis.
as §3
Thrombus formation was induced with FeCl3 in all of the mice except the first […] control groups. All mice were anesthetized with 150 mg/kg of ketamine mixed with 10 mg/kg of xylazine administered by intraperitoneal injection.
After 3 minutes of exposure, the filter paper was removed. Thirty minutes after the filter paper application, a fixed length of the vein containing the thrombus was dissected out for platelet analysis.
Real-time PCR quantification of PF-4 was used to quantify platelets in the vena cava as a measure of thrombus formation. […] Data is presented as percent of PF-4 mRNA as compared to the PBS+ FeCl3 control, […]

[3] = single dose 50 mg/kg, BALB/c mice

CCATAGAACAGCTTCACAGG (sugars from the 5' end e5 d10 e5, backbone and methylation of C not given here) [ISIS 403102]
% inhibition of murine Factor 7 mRNA ([1]; 5 mg/kg sc twice a week for 3 weeks): 64%
% inhibition of murine Factor 7 mRNA ([1]; 10 mg/kg sc twice a week for 3 weeks): 84%
% inhibition of murine Factor 7 mRNA ([1]; 25 mg/kg sc twice a week for 3 weeks): 96%
% inhibition of murine Factor 7 mRNA ([1]; 50 mg/kg sc twice a week for 3 weeks): 99%
reduction of murine Factor 7 (liver mRNA) over PBS control ([1]; 5-50 mg/kg sc twice a week for 3 weeks, BALB/c mice): dose-dependent reduction
% Inhibition of murine Factor 7 mRNA (liver) ([1]; BALB/c mice, single dose 50 mg/kg, day 1): 61%
% Inhibition of murine Factor 7 mRNA (liver) ([1]; BALB/c mice, single dose 50 mg/kg, day 2): 87%
% Inhibition of murine Factor 7 mRNA (liver) ([1]; BALB/c mice, single dose 50 mg/kg, day 3): 92%
% Inhibition of murine Factor 7 mRNA (liver) ([1]; BALB/c mice, single dose 50 mg/kg, day 4): 92%
% Inhibition of murine Factor 7 mRNA (liver) ([1]; BALB/c mice, single dose 50 mg/kg, day 6): 86%
% Inhibition of murine Factor 7 mRNA (liver) ([1]; BALB/c mice, single dose 50 mg/kg, day 8): 80%
% Inhibition of murine Factor 7 mRNA (liver) ([1]; BALB/c mice, single dose 50 mg/kg, day 12): 72%
% Inhibition of murine Factor 7 mRNA (liver) ([1]; BALB/c mice, single dose 50 mg/kg, day 24): 11%
% Inhibition of murine Factor 7 mRNA (liver) ([1]; BALB/c mice, single dose 50 mg/kg, day 56): 0%
Factor 7 inhibition over time ([1]; Example 13, 6 doses of 25 mg/kg sc, days 14, 28, 42 and 56 after last dose): declined progressively
inhibition of Factor 7 mRNA, onset ([1]; Example 13, single dose 25 mg/kg sc): inhibition of Factor 7 as early as day 1
reduction of Factor 7 mRNA in comparison to the PBS control ([1]; Example 14, 25, 37.5 or 50 mg/kg sc twice a week for 3 weeks, FeCl3 VT model): significant dose-dependent reduction
reduction of Factor 7 mRNA in comparison to the PBS control ([1]; Example 15, 5-40 mg/kg sc twice a week for 3 weeks): significant dose-dependent reduction
% inhibition of Factor 7 mRNA ([1]; BALB/c mice, FeCl3 VT model (Example 15), 5 mg/kg s.c. twice a week for 3 weeks): 59%
% inhibition of Factor 7 mRNA ([1]; BALB/c mice, FeCl3 VT model (Example 15), 10 mg/kg s.c. twice a week for 3 weeks): 84%
% inhibition of Factor 7 mRNA ([1]; BALB/c mice, FeCl3 VT model (Example 15), 20 mg/kg s.c. twice a week for 3 weeks): 95%
% inhibition of Factor 7 mRNA ([1]; BALB/c mice, FeCl3 VT model (Example 15), 40 mg/kg s.c. twice a week for 3 weeks): 99%
% inhibition of Factor 7 mRNA ([1]; BALB/c mice, FeCl3 VT model, 25 mg/kg s.c. twice a week for 3 weeks): 24%
% inhibition of Factor 7 mRNA ([1]; BALB/c mice, FeCl3 VT model, 37.5 mg/kg s.c. twice a week for 3 weeks): 74%
% inhibition of Factor 7 mRNA ([1]; BALB/c mice, FeCl3 VT model, 50 mg/kg s.c. twice a week for 3 weeks): 69%
% inhibition of Factor 7 mRNA (liver) ([1]; 25 mg/kg s.c. twice a week, 2 doses, 3 days after last dose): 86%
% inhibition of Factor 7 mRNA (liver) ([1]; 25 mg/kg s.c. twice a week, 4 doses, 3 days after last dose): 91%
% inhibition of Factor 7 mRNA (liver) ([1]; 25 mg/kg s.c. twice a week, 6 doses, 2 days after last dose): 83%
% inhibition of Factor 7 mRNA (liver) ([1]; 25 mg/kg s.c. twice a week, 6 doses, 7 days after last dose): 88%
% inhibition of Factor 7 mRNA (liver) ([1]; 25 mg/kg s.c. twice a week, 6 doses, 14 days after last dose): 64%
% inhibition of Factor 7 mRNA (liver) ([1]; 25 mg/kg s.c. twice a week, 6 doses, 28 days after last dose): 33%
% inhibition of Factor 7 mRNA (liver) ([1]; 25 mg/kg s.c. twice a week, 6 doses, 42 days after last dose): 5%
% inhibition of Factor 7 mRNA (liver) ([1]; 25 mg/kg s.c. twice a week, 6 doses, 56 days after last dose): 11%
% inhibition of Factor 7 mRNA (liver) ([1]; 25 mg/kg s.c., 1 dose, 1 day after last dose): 44%
% inhibition of Factor 7 mRNA (liver) ([1]; 25 mg/kg s.c., 1 dose, 3 days after last dose): 74%
duration of action [1, 3]: at least 24 days
peak effect of a single dose occurs on [1, 3]: ~4 days
inhibition of Factor 7 mRNA ([1]; single dose 50 mg/kg, day 4): 92%
inhibition of Factor 7 mRNA ([1]; single dose 50 mg/kg, day 24): 11%
Factor 7 mRNA levels ([1]; single dose 50 mg/kg, day 56): equal to that of the PBS control
PF-4 (percent of PF-4 mRNA as compared to the PBS + FeCl3 control) ([2]; with FeCl3, ISIS 403102 20 mg/kg s.c. twice a week for three weeks): 39%
PF-4 (percent of PF-4 mRNA as compared to the PBS + FeCl3 control) ([2]; without FeCl3, ISIS 403102 20 mg/kg s.c. twice a week for three weeks): 2%
PF-4 in comparison to the PBS control ([2]; Example 14, 25, 37.5 or 50 mg/kg sc twice a week for 3 weeks): reduction of PF-4
PF-4 in comparison to the PBS control ([2]; Example 16, dosages of 5 mg/kg and higher, sc twice a week for 3 weeks): dose-dependent reduction of PF-4
PF-4 (percentage compared to PBS controls) ([2]; FeCl3 (Example 16), 1 mg/kg s.c. twice a week for 3 weeks): 120%
PF-4 (percentage compared to PBS controls) ([2]; FeCl3 (Example 16), 3 mg/kg s.c. twice a week for 3 weeks): 112%
PF-4 (percentage compared to PBS controls) ([2]; FeCl3 (Example 16), 5 mg/kg s.c. twice a week for 3 weeks): 69%
PF-4 (percentage compared to PBS controls) ([2]; FeCl3 (Example 16), 10 mg/kg s.c. twice a week for 3 weeks): 22%
PF-4 (percentage compared to PBS controls) ([2]; FeCl3 (Example 16), 20 mg/kg s.c. twice a week for 3 weeks): 41%
PF-4 (percentage compared to PBS controls) ([2]; FeCl3 (Example 16), 40 mg/kg s.c. twice a week for 3 weeks): 38%
PF-4 (percentage compared to PBS controls) ([2]; FeCl3, 25 mg/kg s.c. twice a week for 3 weeks): 34%
PF-4 (percentage compared to PBS controls) ([2]; FeCl3, 37.5 mg/kg s.c. twice a week for 3 weeks): 24%
PF-4 (percentage compared to PBS controls) ([2]; FeCl3, 50 mg/kg s.c. twice a week for 3 weeks): 24%
